{"source": "patent US7576129B2", "about": "“Carboxylic acid compounds” (Ono Pharmaceutical Co., Ltd., priority 2003, dated 2009)", "format_in_all_cases": "in vivo, rat", "key": {"[1]": {"tested_on": "pollakiuria model induced by sulprostone", "assay": "Pollakiuria model induced by sulprostone (urination frequency)", "conditions": "male Crj: CD (SD) IGS rats, oral 3, 10, 30 and 100 mg/kg 0.5 hour before sulprostone s.c., 3 hours measurement", "experimental": "A suppressive action of the compound of the present invention to a pollakiuria model induced by sulprostone was investigated as follows. Male Crj: CD (SD) IGS rats of body weight of about 300 g were used. Each of the compound of the present invention (3, 10, 30 and 100 mg/kg) and a 0.5% aqueous solution of methyl cellulose (5 mL/kg) as a control was orally administered. After 0.5 hour from oral administration of a test substance, sulprostone (0.2 mg/4 mL/kg) was subcutaneously administered. As a non-induced group, a 0.5% aqueous solution of methyl cellulose was orally administered and, after […], a physiological saline was subcutaneously administered. Measurement of urination was conducted from immediately after administration of sulprostone until 3 hours thereafter. Measurement of urination was done in such a manner that, under the condition of giving neither feed nor water, the animals were placed in a metabolic cage equipped with a urine measuring device and weight of the collected urine with a lapse of time was recorded using a data-collecting system. Incidentally, case numbers for each group were made 3 to 4 cases."}, "[2]": {"tested_on": "carrageenin-induced hyperalgesia model", "assay": "Carrageenin-induced hyperalgesia model (escape latency, plantar test)", "conditions": "male SD rats, oral 3, 10 and 30 mg/kg 1 hour before carrageenin, 3 hours after injection", "experimental": "An analgesic effect of the compound of the present invention to carrageenin-induced hyperalgesia model which was an acute inflammation pain model was investigated as follows using escape latency as an index. Male rats of an SD strain of seven weeks age were used. Thermal stimulation was irradiated to right hind leg of each rat using a measuring device for a plantar test and the time until escape raising the leg was measured and used as the escape latency. Depending upon the escape latency, grouping was conducted where each group comprised 7 to 8 rats and each of the compound of the present invention (3, 10 and 30 mg/kg) and a 0.5% aqueous solution of methyl cellulose (5 mL/kg) as a control was orally administered. After 1 hour from the oral administration of a test substance, carrageenin (2 mg/100 μL) dissolved in a physiological saline was subcutaneously injected to the sole of right hind leg of the rat. The escape latency during 3 hours after injection of carrageenin was measured."}, "[3]": {"tested_on": "adjuvant-induced arthritis model", "assay": "Pain reaction of adjuvant-induced arthritis model (squeaking reaction)", "conditions": "Lewis male rats, oral, 1, 3, 10 and 30 mg/kg, observed 1-4 hours after administration", "experimental": "A suppressive effect of the compound of the present invention to pain reaction of an adjuvant-induced arthritis model which is a pain model for chronic arthritis was investigated as follows using a squeaking reaction as an index. Lewis male rats of seven weeks age were used. After volume of the left hind leg of each rat was measured, 600 μg/100 μL of dried cells of Mycobacterium butyricum (Difco) suspended in liquid paraffin was injected as an adjuvant into paw skin of a right hind leg to prepare an adjuvant-arthritis rat. After 22 days from injection of the adjuvant, bending and stretching of a knee joint of the left hind leg were conducted for five times before oral administration of a test substance and the rats which squeaked for all of the five times were subjected to the experiment. Depending upon the volume of edema of left hind leg on the previous day, grouping was conducted where one group comprised ten rats. Each of the compound of the present invention (1, 3, 10 and 30 mg/kg) and a 0.5% aqueous solution of methyl cellulose (5 mL/kg) as a control was orally administered. An analgesic action was observed after 1, 2, 3 and 4 hour(s) from the administration."}}}
{"compound": "Cc1cc(C)cc([C@@H](CC(C)C)NC(=O)c2cc(COc3cc(F)ccc3C)ccc2CCC(=O)O)c1", "note": "[compound (I), 3-(2-((((1R)-1-(3,5-dimethylphenyl)-3-methylbutyl)amino)carbonyl)-4-(5-fluoro-2-methylphenoxymethyl)phenyl)propanoic acid]", "values": [{"measurement": "dose as from which urination frequency showed low values", "setting": "[1]", "result": "not more than 30 mg/kg"}, {"measurement": "dose as from which escape latency was significantly high as compared with the control group", "setting": "[2]", "result": "not more than 10 mg/kg"}, {"measurement": "dose as from which individual positive for the analgesic action was noted", "setting": "[3]", "result": "≤ 10", "unit": "mg/kg"}]}
